Data as given in patent publication US4885277A, “Anticoagulant therapy” (Oklahoma Medical Research Foundation, priority 1987, dated 1989).
Where no end group is shown, it is not given here. [ ]: non-standard residue; d: D form. pGlu = O=C1CC[C@@H](C(=O)O)N1

Test system: endothelial cellular receptors for Factor IX (cultured bovine aortic endothelial cells)
Experiment: Competitive binding of [125I]-Factor IX to cultured bovine aortic endothelial cells
Details: up to millimolar amounts of peptide
Method: The purified peptides were tested for their ability to block the binding of bovine Factor IX and IXa to cultured bovine aortic endothelial cells. Bovine Factor IX and IXa for these studies were prepared and radioiodinated (using Na^125 I and the solid state lactoperoxidase technique) using methods described by Stern, et al. (J. Biol. Chem. 260, pp. 6717-6722 [1985]). Bovine aortic endothelial cells were obtained from the aortae of newborn calves as described by Stern, et al. (Proc. Natl. Acad. Sci. U.S.A., 80, pp. 4119-4123 [1983]). These endothelial cells were grown to confluence (1.3×10^5 cells/cm^2) in culture dishes. Binding assays were carried out by incubating either ^125 I-Factor IX or ^125 I-Factor IXa with endothelial cell monolayers in the presence of varying concentrations of one of the peptides. The buffer used in these experiments was Minimal Essential Medium containing 0.5 mg/ml transferring, and the incubation time was 4-5 hours at 4° C. At the end of the incubation period, the cultures were washed to remove unbound material. Then, specifically bound [^125 I]-Factor IX or [^125 I]-Factor IXa was eluted during exposure to EDTA-containing buffer as described by Stern, et al. (Proc. Natl. Acad. Sci. U.S.A., 80, pp. 4119-4123 [1983].

| Substance | inhibition of [125I]-Factor IX endothelial cell binding |
| --- | --- |
| PCA-Gly-Val-Asn-Glu-Glu-Gly-Phe-Phe-Ser-Ala-Arg ([pGlu]GVNEEGFFSAR) [fibrinopeptide B, control peptide for specificity] | no inhibition |
| DRVYVHPSL [Angiotensin I, control peptide for specificity] | no inhibition |
